Assay results reported in US10660890B2, “Treatment of polycystic diseases with an HDAC6 inhibitor” (NATIONAL INSTITUTES OF HEALTH (NIH), U.S. DEPT. OF HEALTH …, priority 2013, dated 2020).

How the values were obtained:
Male PKC-1 rats = assay: Kidney cyst volume in male PCK-1 rats, oral gavage 12 weeks; type: in vivo, rat; details: oral gavage once daily for 12 weeks; histological analysis
Method: Male PKC-1 rats (4 weeks old, n=12) were treated by oral gavage once daily with the indicated dose of compounds for 12 weeks. The animals were sacrificed and kidneys were removed and fixed in formalin. The volume of cysts in the kidneys was measured by histological analysis (see FIG. 7). As a comparison, 6 rats were sacrificed at 4 weeks to measure the starting volume of renal cysts (control).

β-catenin [1] = assay: Immunofluorescence of β-catenin in PCK cholangiocytes; type: cell-based, rat; details: nucleus and cytoplasm (FIG. 6B)
PCK rat = PCK rat model of polycystic liver disease, cystic area and fibrosis; type: in vivo
Excerpt: Bar=2500 μm. FIG. 4C, quantification analysis of cystic area expressed as percentage of total parenchyma area. *p<0.05.
The PCK rat model was used because the genetic mutation in this animal is orthologous to that found in human ARPKD. These animals express many of the characteristics of human […] (Lager D J, et al., Kidney Internat 59: 126-136, 2001; Harris, Curr Opin Nephrol Hypertens 11:309-314, 2002). The animals carrying this mutation present with both kidney and liver fibrocystic disease and these animals live long enough to facilitate long-term treatment protocols (Gattone V. H., et al., Nat Med (2003) 9: 1323-1326; Tones V. E., et al., Nat Med (2004) 10:363-364; Masyuk T. V., et al., Gastroenterology (2007) 132:1104-1116, 2007. Female animals show more severe liver disease than male animals.
The efficacy of the Compound A-1 was then tested in a PCK rat, an animal model of polycystic liver disease.

[2] = system: normal (NRC) cholangiocytes; assay: Proliferation assay, normal rat cholangiocytes (NRC); type: cell-based; details: 2, 4, and 8 μmol/L (FIG. 4A)
Excerpt: (§1) For in vitro experiments, cholangiocytes were isolated from control rats, PCK rats (an animal model for ARPKD; Vroman B, LaRusso N F: Development and characterization of polarized primary cultures of rat intrahepatic bile duct epithelial cells, Lab Invest 1996, 74:303-313), healthy human beings and ADPKD patients (Masyuk et al. Biliary exosomes influence cholangiocyte regulatory mechanisms and proliferation through interaction with primary cilia, Am J Physiol Gastrointest Liver Physiol (2010) 299:G990-999; O'Hara et al. Cholangiocyte N-Ras protein mediates lipopolysaccharide-induced interleukin 6 secretion and proliferation, J Biol Chem (2011) 286:30352-30360; Banales et al. Up-regulation of microRNA 506 leads to decreased Cl(−)/HCO(3) (−) anion exchanger 2 expression in biliary epithelium of patients with primary biliary cirrhosis, Hepatology (2012) 56(2):687-97).
Cholangiocytes were cultured in Collagen-I-coated flasks (BD Biocoat). […]
Control and PCK rat cholangiocytes were cultured on Collagen-I-coated flasks (BD Biocoat) using NRC Media, detached with 0.25% Trypsin-EDTA (GIBCO), transferred to Collagen-I-coated 96-well plates (10 000 cells/well) and incubated at 37° C., 5% CO2, 100% humidity. […] Cell proliferation was assessed with the CellTiter 96 AQueous One Solution (MTS; Promega) and/or counting cells using the Cellometer Auto T4 Cell Counter (Nexcelom Bioscience).

PCK rat cholangiocytes = assay: Proliferation assay, PCK rat cholangiocytes (MTS / cell counting); type: cell-based; details: for reduction of proliferation of PCK cholangiocytes: day 3, MTS
Excerpt: For in vitro experiments, cholangiocytes were isolated from control rats, PCK rats (an animal model for […], LaRusso N F: Development and characterization of polarized primary cultures of rat intrahepatic bile duct epithelial cells, Lab Invest 1996, 74:303-313), healthy human beings and ADPKD patients (Masyuk et al. Biliary exosomes influence cholangiocyte regulatory mechanisms and proliferation through interaction with primary cilia, Am J Physiol Gastrointest Liver Physiol (2010) 299:G990-999; O'Hara et al. Cholangiocyte N-Ras protein mediates lipopolysaccharide-induced interleukin 6 secretion and proliferation, J Biol Chem (2011) 286:30352-30360; Banales et al. Up-regulation of microRNA 506 leads to decreased Cl(-)/HCO(3) (-) anion exchanger 2 expression in biliary epithelium of patients with primary biliary cirrhosis, Hepatology (2012) 56(2):687-97). Cholangiocytes were cultured in Collagen-I-coated flasks (BD Biocoat). All cell lines were incubated in NRC Media at 37° C., 5% CO2, 100% humidity. NRC Media contains Dulbecco's modified Eagle medium/F12 with the following additions: 0.01 mL/mL Minimum Essential Media (MEM) nonessential amino acids, 0.01 mL/mL lipid concentrate, 0.01 mL/mL MEM vitamin solution, 2 mmol/L L-glutamine, 0.05 mg/mL soybean trypsin inhibitor, 0.01 mL/mL insulin/transferring/selenium-S, 5% fetal bovine serum, […] bovine pituitary extract, 25 ng/mL epidermal growth factor, 393 ng/mL dexamethasone, […] 3,3-,5-triiodo-L-thyronine, 4.11 µg/mL forskolin, and 1% penicillin-streptomycin. […] The drug vehicle, DMSO, was suspended in NRC Media as a control. Cell proliferation was assessed with the CellTiter 96 AQueous One Solution (MTS; Promega) and/or counting cells using the Cellometer Auto T4 Cell Counter (Nexcelom Bioscience).

histone-3 = assay: Western blot, histone-3 acetylation in PCK cholangiocytes; type: cell-based, rat; details: 2 μM Tubacin
Method: (§2) PCK cholangiocytes were treated with 20 μM Tubastatin A or 2 μM Tubacin, lysed and used for Western blotting. […] Actin was used as a loading control. FIG. 3B depicts representative images of Western blots (n=3) showing HDAC6 inhibitors increase the amount of phospho- and acetyl-β-catenin compared to untreated cells using total-β-catenin as loading control. […] (*p<0.05).
(§3) Protein isolated from cultured control rat and PCK rat cholangiocytes were analyzed. Cells were scrapped, resuspended in Phosphate Buffered Saline (PBS) with Protease Inhibitors, Sodium Orthovanadate and Phenylmethanesulfonylfluoride (PMSF), sonicated and equal amounts of sample protein were diluted in Laemmli Sample Buffer (Biorad) and mercaptoethanol. After SDS polyacrylamide gel electrophoresis, SDS-PAGE, proteins were transferred to nitrocellulose membranes, blocked, and then incubated with the following primary antibodies: HDAC6 (Santa Cruz Biotechnology, D-11, 1:500), acetylated-α-tubulin (Sigma Aldrich, 1:2000), β-catenin (Cell Signaling Technology, (D10A8) XP® Rabbit mAb; 1:1000), Phospho-β-Catenin (Ser33/37/Thr41) (Cell Signaling Technology, 1:1000), acetyl-β-catenin (Cell Signaling Technology, 1:1000), c-myc (Santa Cruz Biotechnology, 1:500), cyclin D1 (Santa Cruz Biotechnology, 1:500), and actin (Sigma Aldrich, 1:5000). […]

[3] = system: human ADPKD cholangiocytes; assay: 3-day proliferation assay, human ADPKD cholangiocytes; type: cell-based; details: 3-day proliferation assay (FIG. 5A)
Excerpt: FIG. 5A depicts a human ADPKD 3-day proliferation assay showing decreased proliferation induced by both HDAC6 specific inhibitors, tubastatin-A and tubacin.
as §1
Cholangiocytes were cultured in Collagen-I-coated flasks (BD Biocoat). All cell lines were incubated in NRC Media at 37° C., 5% CO2, 100% humidity. […]

β-catenin [4] = assay: Western blot, β-catenin (total, phospho-, acetyl-) in PCK cholangiocytes; type: cell-based, rat
Method: as §2
Protein isolated from cultured control rat and PCK rat cholangiocytes were analyzed. Cells were scrapped, resuspended in Phosphate Buffered Saline (PBS) with Protease Inhibitors, Sodium Orthovanadate and Phenylmethanesulfonylfluoride (PMSF), sonicated and equal amounts of sample protein were diluted in Laemmli Sample Buffer (Biorad) and mercaptoethanol. After SDS polyacrylamide gel electrophoresis, SDS-PAGE, proteins were transferred to nitrocellulose membranes, blocked, and then incubated with the following primary antibodies: HDAC6 (Santa Cruz Biotechnology, D-11, 1:500), acetylated-α-tubulin (Sigma Aldrich, 1:2000), β-catenin (Cell Signaling Technology, (D10A8) XP® Rabbit mAb; 1:1000), Phospho-β-Catenin (Ser33/37/Thr41) (Cell Signaling Technology, 1:1000), acetyl-β-catenin (Cell Signaling Technology, 1:1000), c-myc (Santa Cruz Biotechnology, 1:500), cyclin D1 (Santa Cruz Biotechnology, 1:500), and actin (Sigma Aldrich, 1:5000). The membranes were incubated overnight at 4° C., washed and incubated for 1 hour at room temperature with horseradish perodixase-conjugated (1:5000, Invitrogen) or IRdye 680 or 800 (1:15000, Odyssey) corresponding secondary antibody. The ECL system or Odyssey Licor Scanner was used for protein detection and the Gel-Pro Analyzer 6.0 software was used for densitometry analysis.
(§4) For a better understanding of the mechanisms that are responsible for the inhibition of PCK cholangiocyte proliferation and cyst growth in 3D culture, cultured PCK cholangiocytes were treated with tubastatin-A and tubacin and the amount of acetylated α-tubulin and β-catenin was determined by Western blotting.

c-myc = assay: Western blot, c-myc in PCK cholangiocytes; type: cell-based, rat; details: 2 μM Tubacin
Method: as §2, §3

β-catenin mRNA = assay: RT-PCR, β-catenin mRNA in PCK cholangiocytes; type: cell-based, rat; details: 2 uM tubacin; over time
Method: as §2
RNA was isolated from control and PCK rat cholangiocytes with TRIZOL reagent (Invitrogen). cDNA was obtained using First Srand cDNA Synthesis (Invitrogen) reagents and HDAC6 primers (forward primer: 5′-TCAGCGCAGTCTTATGGATG-3′ (SEQ ID NO.: 1); reverse primer: 5′-GCGGTGGATGGAGAAATAGA-3′, SEQ ID NO.: 2) were purchased from Integrated DNA Technologies. β-catenin mRNA expression was analyzed using the TaqMan Gene Expression Assay (Assay ID Rn00584431_g1) following the manufacturer directions. The samples were normalized to 18S rRNA.

[5] = system: biliary cysts freshly isolated from PCK rats; assay: 3D-culture cyst growth in collagen matrix; type: cell-based, rat; details: after four days
Method: Freshly isolated bile ducts from PCK rats were embedded in a rat-tail type I Collagen matrix (BD Biosciences) and grown in the presence or absence of 10 μmol/L Tubastatin A and 2 μmol/L Tubacin. Images of the growing cysts were taken every day over a period of 5 days and cyst size was measured with the software “Image J” (National Institute of Health). The circumferential areas for each cystic structure was compared to day 0 to calculate percentages of growth as previously described (see Muff et al. Development and characterization of a cholangiocyte cell line from the PCK rat, an animal model of Autosomal Recessive Polycystic Kidney Disease, Lab Invest 2006, 86:940-950; Masyuk et al. Octreotide inhibits hepatic cystogenesis in a rodent model of polycystic liver disease by reducing cholangiocyte adenosine 3′,5′-cyclic monophosphate, Gastroenterology (2007) 132:1104-1116 27; Lee et al. MicroRNA15a modulates expression of the cell-cycle regulator Cdc25A and affects hepatic cystogenesis in a rat model of polycystic kidney disease, J. Clin. Invest. (2008) 118:3714-3724 28. Gradilone et al. Activation of Trpv4 reduces the hyperproliferative phenotype of cystic cholangiocytes from an animal model of ARPKD, Gastroenterology (2010) 139:304-314 e302).

cyclin D1 = assay: Western blot, cyclin D1 in PCK cholangiocytes; type: cell-based, rat; details: 2 μM Tubacin
Method: as §2, §3

acetylated α-tubulin = assay: Western blot, acetylated α-tubulin in PCK cholangiocytes; type: cell-based, rat
Method: as §2
Protein isolated from cultured control rat and PCK rat cholangiocytes were analyzed. Cells were scrapped, resuspended in Phosphate Buffered Saline (PBS) with Protease Inhibitors, Sodium Orthovanadate and Phenylmethanesulfonylfluoride (PMSF), sonicated and equal amounts of sample protein were diluted in Laemmli Sample Buffer (Biorad) and mercaptoethanol. […]
as §4

[6] = 2 μM Tubacin, total-β-catenin as loading control

## O=C(NO)c1cnc(NC2(c3ccccc3)CCC(F)(F)CC2)nc1 [Compound C-2]
Male PKC-1 rats
  cyst formation in vivo (volume of cysts in the kidneys): decrease cyst formation

## O=C(CCCCCCNC(=O)c1cnc(N(c2ccccc2)c2ccccc2Cl)nc1)NO [Compound B-1, 2-((2-chlorophenyl)(phenyl)amino)-N-(7-(hydroxyamino)-7-oxoheptyl)pyrimidine-5-carboxamide]
Male PKC-1 rats
  cyst formation in vivo (volume of cysts in the kidneys): decrease cyst formation

## O=C(CCCCCCNC(=O)c1cnc(N(c2ccccc2)c2ccccc2)nc1)NO [Compound A-1, 2-(diphenylamino)-N-(7-(hydroxyamino)-7-oxoheptyl)pyrimidine-5-carboxamide]
β-catenin [1]
  β-catenin expression in PCK cells (fluorescence quantification): reduced β-catenin expression
PCK rat; p<0.001
  reduction of liver fibrosis: 30.5%
PCK rat; vs vehicle
  reduction of kidney cyst area: 39.0%
  reduction of liver cyst area: 28.4%
[2]
  proliferation of normal cells: no significant effect
PCK rat cholangiocytes; 2, 4, and 8 μmol/L (FIG. 4A)
  PCK cells proliferation: inhibited by the Compound A-1 in a dose dependent manner

## O=C(CCCCCCC(=O)Nc1ccc([C@H]2O[C@@H](CSc3nc(-c4ccccc4)c(-c4ccccc4)o3)C[C@@H](c3ccc(CO)cc3)O2)cc1)NO [tubacin]
histone-3
  acetylation levels of histone-3: remained unaffected
[3]
  decrease of proliferation of cultured human ADPKD cholangiocytes: 16%
β-catenin [4]; 2 μM Tubacin
  decrease of β-catenin level: 5 fold
β-catenin [4]; [6]
  amount of acetyl-β-catenin compared to untreated cells: increase
  amount of phospho-β-catenin compared to untreated cells: increase
β-catenin [4]; 2 uM tubacin
  β-catenin protein expression over time: decrease in β-catenin protein expression over time
c-myc
  c-myc level: decreasing
β-catenin mRNA
  β-catenin mRNA: remained stable
[5]; 2 μM
  reduction of cyst growth compared to untreated cysts: 125%
PCK rat cholangiocytes; tubacin, 3 day time period (FIG. 2B)
  reduction of PCK cholangiocyte proliferation: 2.94 folds
Cyclin D1
  cyclin D1 level: decreasing
Acetylated α-tubulin; 2 μM Tubacin
  increase of acetylated α-tubulin level compared to untreated cells: 2.3 fold

## CN1CCc2c(c3ccccc3n2Cc2ccc(C(=O)NO)cc2)C1 [tubastatin A]
[3]
  decrease of proliferation of cultured human ADPKD cholangiocytes: 85%
β-catenin [4]; 20 μM Tubastatin A
  decrease of β-catenin level: 2.2 fold
[5]; 10 μM
  reduction of cyst growth compared to untreated cysts: 131%
PCK rat cholangiocytes; 5 μM
  reduction of proliferation of PCK cholangiocytes: 2.5 folds
PCK rat cholangiocytes; 10 μM
  reduction of proliferation of PCK cholangiocytes: 3.5 folds
PCK rat cholangiocytes; 20 μM
  reduction of proliferation of PCK cholangiocytes: 4.15 folds
Acetylated α-tubulin; 20 μM Tubastatin A
  increase of acetylated α-tubulin level compared to untreated cells: 13 fold
